Experimental data taken from patent publication US11123350B2, “Metal delivery agents and therapeutic uses of the same” (THE UNIVERSITY OF MELBOURNE, priority 2006, dated 2021).

Key:
[1] = system: G93A-SOD1 mice; conditions: other reported pharmacological treatments (literature); cited from earlier work
[2] = system: A30P cells; assay: Dopamine induced cell death, A30P cells (MTT); type: cell-based

| SMILES | Increased Life Span [1] | % recovery ([2]; Dopamine 500 μm + complex 0.01 μM) | % recovery ([2]; Dopamine 500 μm + complex 0.1 μM) |
| --- | --- | --- | --- |
| NCC1(CC(=O)O)CCCCC1 [Gabapentin] | No effect | – | – |
| O=C1NC(=O)C(c2ccc(-c3ccccc3)cc2)(N2CCN(c3ccc([N+](=O)[O-])cc3)CC2)C(=O)N1 [Ro 28-2653] | 13 days | – | – |
| CN=C([S-])N/N=C(C)/C(C)=N/NC([S-])=NC.[64Cu+2] [Complex A2, copper(II)diacetylbis(N(4)-methylthiosemicarbazone)] | – | 105.90% | 97.77% |
| CC(=O)Oc1ccccc1C(=O)O [Lysine Acetyl salicylate] | No effect | – | – |
